Here are results for 7 compounds from US10828317B2, “Method of treating bacterial infections” (priority 2016, dated 2020).

Converted amounts (≈) assume the structure as drawn. “And” between values parts separate entries of the source, which are not always exact repeats. Equal values may be shown once. Read-outs that look alike come from different tables or passages of the source. Bounds are passed on as bounds.

One assay relates to S. flexneri APV00907. Kind of assay: MIC and antibiogram. It is filed as cell-based. The conditions noted are these: for Antibiogram category (resistance pattern): letter before the MIC. From the text:
(§1) Inhibition of Heliobacter is important in view of increasing resistance and its association to gastric cancer.

The subject of a further assay is K. pneumoniae EN0262. The settings on record: commercial antibiotics; data provided by IMBIM, BMC, Uppsala University; cited from earlier work.
The subject of the next assay is S. sonnei APV00908. Kind of assay: MIC and antibiogram. It is filed as cell-based. The settings on record: for Antibiogram category (resistance pattern): letter before the MIC.
For another assay, the system named is S. flexneri APV00906. Kind of assay: microbe, parasite or virus in culture. The settings on record: for Antibiogram category (resistance pattern): letter before the MIC. It is filed as cell-based.
Excerpt: as §1

For another assay, the system named is Citrobacter sp. EN0465. The experiment in a line: MIC. It is filed as cell-based. The settings on record: Citrobacter, read-out: MIC.
The next assay relates to E. coli EN002. Kind of assay: MIC, DtoIC. It is filed as cell-based, Escherichia coli. The conditions noted are these: Escherichia coli, read-out: MIC.
The next assay deals with E. coli strain no 2. Kind of assay: MIC vs E. coli LMG 15862, penicillin resistant. The conditions noted are these: Escherichia coli, Uridine 0 μg/ml.
The test system of the next assay is P. aeruginosa EN004. The experiment in a line: MIC, WT (EN004 = EN0004). It counts as cell-based, Pseudomonas aeruginosa.
The test system of assay [1] is A. pittii or A. nosocomialis EN0180. The experiment in a line: MIC. It is filed as cell-based, Acinetobacter pittii or nosocomialis. The settings on record: read-out: MIC.
The next assay relates to S. aureus EN008. Kind of assay: MIC, Gram-positive control. The settings on record: Staphylococcus aureus, EN008, Combination 2 AZT+trimethoprim+uridine+thymidine, Table 16; read-out: MIC. It counts as cell-based, Staphylococcus aureus.
A further assay concerns A. baumannii EN016. The experiment in a line: MIC, WT. It is filed as cell-based, Acinetobacter baumannii. The settings on record: Acinetobacter baumannii, read-out: MIC.
In a further assay the test system is M. luteus EN0455. Kind of assay: MIC. It is filed as cell-based, Micrococcus luteus. The conditions noted are these: Micrococcus luteus, EN0455, Combination 2 AZT+trimethoprim+uridine+thymidine, Table 16; read-out: MIC.
The test system of the next assay is P. aeruginosa EN0422. The experiment in a line: MIC. It is filed as cell-based, Pseudomonas aeruginosa. The conditions noted are these: Pseudomonas aeruginosa, read-out: MIC.
For the next assay, the system named is S. aureus strain no 13. The experiment in a line: MIC vs S. aureus LMG 15975, MRSA. The conditions noted are these: Staphylococcus aureus.
Another assay relates to P. mirabilis EN0457. The experiment in a line: MIC. It counts as cell-based, Proteus mirabilis. The settings on record: Proteus mirabilis, EN0457, Combination 2 AZT+trimethoprim+uridine+thymidine, Table 16; read-out: MIC.
The next assay concerns P. aeruginosa EN0460. Kind of assay: MIC. It counts as cell-based, Pseudomonas aeruginosa. The settings on record: Pseudomonas aeruginosa, read-out: MIC.
For the next assay, the system named is P. aeruginosa EN014. Kind of assay: MIC, WT. The conditions noted are these: Pseudomonas aeruginosa, read-out: MIC. It counts as cell-based, Pseudomonas aeruginosa.
The next assay concerns P. mirabilis ST19 EN0445. Kind of assay: MIC. It counts as cell-based, Proteus mirabilis. The conditions noted are these: Proteus mirabilis, read-out: MIC.
For the next assay, the system named is S. marescens EN0454. Kind of assay: MIC. It is filed as cell-based, Serratia marescens. The conditions noted are these: Serratia, EN0454, Combination 2 AZT+trimethoprim+uridine+thymidine, Table 16; read-out: MIC.
For another assay, the system named is A. baumannii EN007. Kind of assay: MIC, WT (EN007 = EN0007). It counts as cell-based, Acinetobacter baumannii.
In the next assay the test system is E. coli. Kind of assay: Murine peritonitis model. It is filed as in vivo, mice. Set-up: score at sampling: scale not given here.
Another assay has as its system P. aeruginosa EN0459. The experiment in a line: MIC. It counts as cell-based, Pseudomonas aeruginosa. The settings on record: Pseudomonas aeruginosa, read-out: MIC.
[2] abbreviates: combination AZT+trimethoprim+uridine, Table 17B.

Turning to `NCC[C@H](O)C(=O)N[C@@H]1C[C@H](N)[C@@H](O[C@H]2O[C@H](CN)[C@@H](O)[C@H](O)[C@H]2O)[C@H](O)[C@H]1O[C@H]1O[C@H](CO)[C@@H](O)[C@H](N)[C@H]1O` [AMK, amikacin], the “Antibiogram category (resistance pattern)” value (“Antibiogram category” for short) in the assay on S. flexneri APV00907, in the assay with S. sonnei APV00908 and with S. flexneri APV00906 was “R*” throughout. In addition, the MIC in the assay on K. pneumoniae EN0262 is 8 mg/L (≈ 13.7 µM).
Consider `Cc1cn([C@H]2C[C@H](N=[N+]=[N-])[C@@H](CO)O2)c(=O)[nH]c1=O` [AZT, 3′-azido-3′-deoxythymidine], for which the MIC with Citrobacter sp. EN0465 (SP.EN0465, Combination 1 AZT+trimethoprim+uridine, Table 16) is more than 4 mg/L; in the assay on Citrobacter sp. EN0465 (SP.EN0465, Combination 2 AZT+trimethoprim+uridine+thymidine, Table 16) it was more than 4 mg/L; with Citrobacter sp. EN0465 (SP.EN0465, combination AZT+trimethoprim+uridine, Table 6), more than 4 mg/L; with E. coli EN002 (EN002, Combination 1 AZT+trimethoprim+uridine, Table 16), 0.016 mg/L; in the assay with E. coli EN002 (EN002, combination AZT+trimethoprim+uridine, Table 6), 0.016 mg/L; in the assay with E. coli strain no 2 (NO2, read-out: MIC AZT, Iclaprim 0.1), more than 8 mg/L. The MIC with E. coli strain no 2 (NO2, read-out: MIC AZT, Iclaprim 0.2) was more than 8 mg/L; in the assay on P. aeruginosa EN004 (Pseudomonas aeruginosa, EN004, Combination 1 AZT+trimethoprim+uridine, Table 16, read-out: MIC), more than 4 mg/L; with P. aeruginosa EN004 (Pseudomonas aeruginosa, EN004, Combination 2 AZT+trimethoprim+uridine+thymidine, Table 16, read-out: MIC) it was more than 4 mg/L; in the assay with P. aeruginosa EN004 (Pseudomonas aeruginosa, EN004, combination AZT+trimethoprim+uridine, Table 6, read-out: MIC) it was more than 4 mg/L; in the assay on P. aeruginosa EN004 (setting [2]) it was more than 4 mg/L; in [1] (Combination 1 AZT+trimethoprim+uridine, Table 16), more than 4 mg/L. Further, the MIC in [1] (Combination 2 AZT+trimethoprim+uridine+thymidine, Table 16) is more than 4 mg/L; in [1] (combination AZT+trimethoprim+uridine, Table 6) it was more than 4 mg/L; with S. aureus EN008, more than 4 mg/L; with A. baumannii EN016 (EN016, Combination 1 AZT+trimethoprim+uridine, Table 16), more than 4 mg/L; in the assay on A. baumannii EN016 (EN016, Combination 2 AZT+trimethoprim+uridine+thymidine, Table 16), more than 4 mg/L; with A. baumannii EN016 (EN016, combination AZT+trimethoprim+uridine, Table 6), more than 4 mg/L. The MIC in the assay on M. luteus EN0455 was more than 4 mg/L; in the assay on P. aeruginosa EN0422 (EN0422, Combination 1 AZT+trimethoprim+uridine, Table 16), more than 4 mg/L; with P. aeruginosa EN0422 (EN0422, Combination 2 AZT+trimethoprim+uridine+thymidine, Table 16), more than 4 mg/L; with P. aeruginosa EN0422 (EN0422, combination AZT+trimethoprim+uridine, Table 6), more than 4 mg/L; with S. aureus strain no 13 (NO13, read-out: MIC AZT, Iclaprim 0, Uridine 0 μg/ml), more than 32 mg/L; in the assay on S. aureus strain no 13 (NO13, read-out: MIC AZT, Iclaprim 0, Uridine 100 μg/ml), more than 32 mg/L. The MIC is more than 32 mg/L with S. aureus strain no 13 (NO13, read-out: MIC AZT, Iclaprim 0, Uridine 300 μg/ml); more than 32 mg/L with S. aureus strain no 13 (NO13, read-out: MIC AZT, Iclaprim 0, Uridine 500 μg/ml); not above 0.008 mg/L with S. aureus strain no 13 (NO13, read-out: MIC AZT, Iclaprim 0.03, Uridine 300 μg/ml); not above 0.008 mg/L with S. aureus strain no 13 (NO13, read-out: MIC AZT, Iclaprim 0.03, Uridine 500 μg/ml); more than 4 mg/L with P. mirabilis EN0457; more than 4 mg/L in the assay with P. aeruginosa EN0460 (EN0460, Combination 1 AZT+trimethoprim+uridine, Table 16). In addition, the MIC with P. aeruginosa EN0460 (EN0460, Combination 2 AZT+trimethoprim+uridine+thymidine, Table 16) was more than 4 mg/L; in the assay on P. aeruginosa EN0460 (EN0460, combination AZT+trimethoprim+uridine, Table 6) it was more than 4 mg/L; in the assay with P. aeruginosa EN014 (EN014, Combination 1 AZT+trimethoprim+uridine, Table 16), more than 4 mg/L; in the assay on P. aeruginosa EN014 (EN014, Combination 2 AZT+trimethoprim+uridine+thymidine, Table 16) it was more than 4 mg/L; in the assay with P. aeruginosa EN014 (EN014, combination AZT+trimethoprim+uridine, Table 6), more than 4 mg/L; with P. mirabilis ST19 EN0445 (ST19EN0445, Combination 2 AZT+trimethoprim+uridine+thymidine, Table 16), more than 4 mg/L. The MIC in the assay on P. mirabilis ST19 EN0445 (ST19EN0445, combination AZT+trimethoprim+uridine, Table 6) is more than 4 mg/L; with S. marescens EN0454 it was more than 4 mg/L; with A. baumannii EN007 (Acinetobacter baumannii, EN007, Combination 1 AZT+trimethoprim+uridine, Table 16, read-out: MIC) it was more than 4 mg/L; in the assay on A. baumannii EN007 (Acinetobacter baumannii, EN007, Combination 2 AZT+trimethoprim+uridine+thymidine, Table 16, read-out: MIC), more than 4 mg/L; in the assay with A. baumannii EN007 (Acinetobacter baumannii, EN007, combination AZT+trimethoprim+uridine, Table 6, read-out: MIC) it was more than 4 mg/L; in the assay with A. baumannii EN007 (setting [2]), more than 4 mg/L. Further, the MIC is more than 4 mg/L with P. aeruginosa EN0459 (EN0459, Combination 1 AZT+trimethoprim+uridine, Table 16); more than 4 mg/L in the assay on P. aeruginosa EN0459 (EN0459, Combination 2 AZT+trimethoprim+uridine+thymidine, Table 16); more than 4 mg/L in the assay on P. aeruginosa EN0459 (EN0459, combination AZT+trimethoprim+uridine, Table 6). The “CFU/ml PF” value in the assay on E. coli (AZT 30 mg/kg, per mouse) is 1.65E+04 CFU/ml and 4.25E+05 CFU/ml and 1.10E+07 CFU/ml and 6.75E+05 CFU/ml. For the same compound, the “log CFU/ml PF” value in the assay on E. coli (AZT 30 mg/kg, per mouse) is 4.22 log CFU/ml and 5.63 log CFU/ml and 7.04 log CFU/ml and 5.83 log CFU/ml. The score at sampling in the assay on E. coli (AZT 30 mg/kg, per mouse) came to 1. Also, in the assay with E. coli (murine peritonitis model), the “inhibition in mice infected with E. coli (in words)” value is reported as “slight inhibition”.
As for `CC(C)(O/N=C(\C(=O)N[C@@H]1C(=O)N2C(C(=O)[O-])=C(C[n+]3ccccc3)CS[C@H]12)c1csc(N)n1)C(=O)O` [CAZ, ceftazidime], in the assay with K. pneumoniae EN0262, the MIC is more than 32 mg/L. Moreover, the “Antibiogram category” value in the assay on S. flexneri APV00906 was “|”.
On to amoxicillin-clavulanic acid [AMC], for which the entries for the “Antibiogram MIC” value in the assay on S. flexneri APV00907, in the assay with S. sonnei APV00908 and with S. flexneri APV00906 were 16 mg/L, not above 2 mg/L and 4 mg/L, respectively. For the same compound, the “Antibiogram category” value in the assay on S. flexneri APV00907 is “|”. In addition, the MIC in the assay with K. pneumoniae EN0262 is more than 64 mg/L.
On to gentamicin, for which the figures for the “Antibiogram MIC” value with S. flexneri APV00907, in the assay on S. sonnei APV00908 and in the assay on S. flexneri APV00906 were not above 1 mg/L, not above 1 mg/L and 4 mg/L, respectively. The “Antibiogram category” value with S. flexneri APV00907, with S. sonnei APV00908 and in the assay with S. flexneri APV00906 was “R*” each time. Also, the MIC in the assay on K. pneumoniae EN0262 is 1 mg/L.
Regarding piperacillin-tazobactam [TZP], the “Antibiogram MIC” value in the assay on S. flexneri APV00907, with S. sonnei APV00908 and in the assay with S. flexneri APV00906 was not above 4 mg/L each time. Moreover, the MIC with K. pneumoniae EN0262 is 64 mg/L.
As to trimethoprim-sulfamethoxazole [SXT], the results for the “Antibiogram MIC” value in the assay on S. flexneri APV00907, with S. sonnei APV00908 and in the assay with S. flexneri APV00906 were not below 320 mg/L, not below 160 mg/L and not below 320 mg/L, respectively. In addition, the MIC in the assay with K. pneumoniae EN0262 is 4 mg/L.
